# According to PubChem BioAssay (NCI):
#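 Abbreviation: GI50, concentration required for 50% inhibition of growth. At the TGI there is no net growth.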
# How the values were obtained:
# Test in all cases: NCI-60 cell line screen, 384-well format
# 786-0 renal = test system: 786-0 renal
# A498 renal = test system: A498 renal
# A549 NSCLC = test system: A549 NSCLC
# ACHN renal = test system: ACHN renal
# BT-549 breast = test system: BT-549 breast
# CAKI-1 renal = test system: CAKI-1 renal
# CCRF-CEM leukemia = test system: CCRF-CEM leukemia
# COLO 205 colon = test system: COLO 205 colon
# EKVX NSCLC = test system: EKVX NSCLC
# HCT-116 colon = test system: HCT-116 colon
# HCT-15 colon = test system: HCT-15 colon
# HL-60(TB) leukemia = test system: HL-60(TB) leukemia
# HOP-62 NSCLC = test system: HOP-62 NSCLC
# HOP-92 NSCLC = test system: HOP-92 NSCLC
# HS 578T breast = test system: HS 578T breast
# HT29 colon = test system: HT29 colon
# IGROV1 ovarian = test system: IGROV1 ovarian
# K-562 leukemia = test system: K-562 leukemia
# KM12 colon = test system: KM12 colon
# LOX IMVI melanoma = test system: LOX IMVI melanoma
# M14 melanoma = test system: M14 melanoma
# MALME-3M melanoma = test system: MALME-3M melanoma
# MCF7 breast = test system: MCF7 breast
# MDA-MB-231 breast = test system: MDA-MB-231 breast
# MDA-MB-435 melanoma = test system: MDA-MB-435 melanoma
# MDA-MB-468 breast = test system: MDA-MB-468 breast
# MOLT-4 leukemia = test system: MOLT-4 leukemia
# NCI-H226 lung = test system: NCI-H226 lung
# NCI-H23 lung = test system: NCI-H23 lung
# NCI-H322M lung = test system: NCI-H322M lung
# NCI-H460 NSCLC = test system: NCI-H460 NSCLC
# NCI/ADR-RES ovarian = test system: NCI/ADR-RES ovarian
# OVCAR-8 ovarian = test system: OVCAR-8 ovarian
# PC-3 prostate = test system: PC-3 prostate
# RPMI-8226 leukemia = test system: RPMI-8226 leukemia
# RXF 393 renal = test system: RXF 393 renal
# SF-268 CNS = test system: SF-268 CNS
# SF-295 CNS = test system: SF-295 CNS
# SF-539 CNS = test system: SF-539 CNS
# SK-MEL-2 melanoma = test system: SK-MEL-2 melanoma
# SN12C renal = test system: SN12C renal
# SNB-75 CNS = test system: SNB-75 CNS
# SR leukemia = test system: SR leukemia
# SW-620 colon = test system: SW-620 colon
# TK-10 renal = test system: TK-10 renal
# U251 glioblastoma = test system: U251 glioblastoma
# UO-31 renal = test system: UO-31 renal
smiles,measurement,setting,value
COc1cc(C)[nH]c(=O)c1CNC(=O)c1c(C)n([C@H](C)C2CCN(CC(F)(F)F)CC2)c2ccccc12,GI50,786-0 renal,50.6 µM
same,TGI,786-0 renal,> 100 µM
same,GI50,A498 renal,43.1 µM
same,TGI,A498 renal,> 100 µM
same,GI50,A549 NSCLC,46.8 µM
same,TGI,A549 NSCLC,> 100 µM
same,GI50,ACHN renal,45.4 µM
same,TGI,ACHN renal,> 100 µM
same,GI50,BT-549 breast,27.4 µM
same,TGI,BT-549 breast,> 72.6 µM
same,GI50,CAKI-1 renal,63.5 µM
same,TGI,CAKI-1 renal,> 100 µM
same,GI50,CCRF-CEM leukemia,21.6 µM
same,TGI,CCRF-CEM leukemia,43.9 µM
same,GI50,COLO 205 colon,97.3 µM
same,TGI,COLO 205 colon,> 100 µM
same,GI50,EKVX NSCLC,67.7 µM
same,TGI,EKVX NSCLC,> 100 µM
same,GI50,HCT-116 colon,66.8 µM
same,TGI,HCT-116 colon,> 100 µM
same,GI50,HCT-15 colon,67 µM
same,TGI,HCT-15 colon,> 100 µM
same,GI50,HL-60(TB) leukemia,33.4 µM
same,TGI,HL-60(TB) leukemia,> 61.6 µM
same,GI50,HOP-62 NSCLC,46.7 µM
same,TGI,HOP-62 NSCLC,> 100 µM
same,GI50,HOP-92 NSCLC,45.7 µM
same,TGI,HOP-92 NSCLC,> 100 µM
same,GI50,HS 578T breast,40.1 µM
same,TGI,HS 578T breast,> 100 µM
same,GI50,HT29 colon,39.7 µM
same,TGI,HT29 colon,> 100 µM
same,GI50,IGROV1 ovarian,44.1 µM
same,TGI,IGROV1 ovarian,> 100 µM
same,GI50,K-562 leukemia,36.3 µM
same,TGI,K-562 leukemia,> 100 µM
same,GI50,KM12 colon,53.8 µM
same,TGI,KM12 colon,> 100 µM
same,GI50,LOX IMVI melanoma,31.7 µM
same,TGI,LOX IMVI melanoma,94.1 µM
same,GI50,M14 melanoma,> 72.8 µM
same,TGI,M14 melanoma,> 100 µM
same,GI50,MALME-3M melanoma,> 66.1 µM
same,TGI,MALME-3M melanoma,> 100 µM
same,GI50,MCF7 breast,27.3 µM
same,TGI,MCF7 breast,> 100 µM
same,GI50,MDA-MB-231 breast,67.5 µM
same,TGI,MDA-MB-231 breast,> 100 µM
same,GI50,MDA-MB-435 melanoma,58.6 µM
same,TGI,MDA-MB-435 melanoma,> 100 µM
same,GI50,MDA-MB-468 breast,21.4 µM
same,TGI,MDA-MB-468 breast,51.3 µM
same,GI50,MOLT-4 leukemia,16.5 µM
same,TGI,MOLT-4 leukemia,31.3 µM
same,GI50,NCI-H226 lung,> 51.9 µM
same,TGI,NCI-H226 lung,96.9 µM
same,GI50,NCI-H23 lung,> 100 µM
same,TGI,NCI-H23 lung,> 100 µM
same,GI50,NCI-H322M lung,> 83.6 µM
same,TGI,NCI-H322M lung,> 100 µM
same,GI50,NCI-H460 NSCLC,54.7 µM
same,TGI,NCI-H460 NSCLC,> 100 µM
same,GI50,NCI/ADR-RES ovarian,> 100 µM
same,TGI,NCI/ADR-RES ovarian,> 100 µM
same,GI50,OVCAR-8 ovarian,> 96 µM
same,TGI,OVCAR-8 ovarian,> 100 µM
same,GI50,PC-3 prostate,55.5 µM
same,TGI,PC-3 prostate,> 100 µM
same,GI50,RPMI-8226 leukemia,2.4 µM
same,TGI,RPMI-8226 leukemia,10.3 µM
same,GI50,RXF 393 renal,28.3 µM
same,TGI,RXF 393 renal,79.7 µM
same,GI50,SF-268 CNS,39.6 µM
same,TGI,SF-268 CNS,> 68.2 µM
same,GI50,SF-295 CNS,76.6 µM
same,TGI,SF-295 CNS,> 100 µM
same,GI50,SF-539 CNS,> 100 µM
same,TGI,SF-539 CNS,> 100 µM
same,GI50,SK-MEL-2 melanoma,38.6 µM
same,TGI,SK-MEL-2 melanoma,> 100 µM
same,GI50,SN12C renal,> 80.5 µM
same,TGI,SN12C renal,> 100 µM
same,GI50,SNB-75 CNS,42 µM
same,TGI,SNB-75 CNS,> 100 µM
same,GI50,SR leukemia,21.5 µM
same,TGI,SR leukemia,76.5 µM
same,GI50,SW-620 colon,52 µM
same,TGI,SW-620 colon,> 91.9 µM
same,GI50,TK-10 renal,> 100 µM
same,TGI,TK-10 renal,> 100 µM
same,GI50,U251 glioblastoma,98 µM
same,TGI,U251 glioblastoma,> 100 µM
same,GI50,UO-31 renal,90.4 µM
same,TGI,UO-31 renal,> 100 µM
